Laboratory results published in patent publication US7718664B2, “Anti-itching agent” (Toray Industries, Inc., priority 2004, dated 2010).
Counter-ions that a name gives are not always drawn.

tested on: not given; test: not given; details: in vivo; cited from earlier work

| Structure (SMILES) | effect on severe pruritus in cholestasia with hepathopathy |
| --- | --- |
| C=C1CC[C@@]2(O)[C@H]3Cc4ccc(O)c5c4[C@@]2(CCN3CC2CC2)[C@H]1O5 [nalmefene] | suppressed |

tested on: not given; test: not given; details: epidurally or intrathecally administered; cited from earlier work

| Structure (SMILES) | induction of pruritus |
| --- | --- |
| CN1CC[C@]23c4c5ccc(O)c4O[C@H]2[C@@H](O)C=C[C@H]3[C@H]1C5 [morphine] | induced |

tested on: Male ddY mice; test: Inhibitory effect of scratching behavior induced by Substance-P; assay type: in vivo, mouse; details: test drug sc 30 minutes before intradermal Substance-P, scratching counted for 30 minutes
Experimental: Male ddY mice were purchased when they were 4 weeks old, and used in the experiments when they became 5 weeks old after acclimation. One day before experiment, each mouse had hair on the rostral back skin clipped with a hair clipper. Each of test drugs was dissolved in 10% DMSO. Either the test drug or vehicle was administered subcutaneously into the rostral back of the mouse, and 30 minutes later, Substance-P (250 nmom/site) dissolved in PBS (phosphate buffered saline) was administered intradermally into the hair-clipped skin at a dose of about 50 μL. Immediately thereafter, each mouse was put into a cage for observation (10*14*22 cm), and the subsequent behavior of each mouse was recorded by an unattended video camera for 30 minutes. The video tape was replayed, and the number of times that the mouse scratched at or around the Substance-P-administered site with its hind limb was counted. In the experiment, each group consisted of 8 mice. In cases where there was a statistically significant difference in the mean number of scratching between the solvent-administered group and the test drug-administered group, the test drug was judged to have an antipruritic effect. The results are shown in terms of the predicted administration dosage at which the number of scratching was reduced to half of that in the solvent-administered group (Table 5).

| Structure (SMILES) | ED50 (predicted administration dosage at which the number of scratching was reduced to half of that in the solvent-administered group) |
| --- | --- |
| O=C1C2=C(CCCC2)C(=O)N1[C@@H]1CC[C@@]2(O)[C@H]3Cc4ccc(O)c5c4[C@@]2(CCN3CC2CC2)[C@H]1O5 [Compound 3, N-[(17-cyclopropylmethyl)-4,5α-epoxy-3,14-dihydroxy-morphinan-6β-yl]-3,4,5,6-tetrahydrophthalimide tartaric acid salt] | 0.0033 mg/kg, sc |
| O=C1c2ccccc2S(=O)(=O)N1[C@@H]1CC[C@@]2(O)[C@H]3Cc4ccc(O)c5c4[C@@]2(CCN3CC2CC2)[C@H]1O5 [Compound 4, [N-(17-cyclopropylmethyl)-4,5α-epoxy-3,14-dihydroxy-morphinan-6β-yl]-O-sulfonebenzimide tartaric acid salt] | 0.0081 mg/kg, sc |
| O=C1c2ccccc2C(=O)N1[C@@H]1CC[C@@]2(O)[C@H]3Cc4ccc(O)c5c4[C@@]2(CCN3CC2CC2)[C@H]1O5 [Compound 6, N-[(17-cyclopropylmethyl)-4,5α-epoxy-3,14-dihydroxy-morphinan-6β-yl]-phthalimide] | 0.0029 mg/kg, sc |
| O=C1c2ccccc2CN1[C@@H]1CC[C@@]2(O)[C@H]3Cc4ccc(O)c5c4[C@@]2(CCN3CC2CC2)[C@H]1O5 [Compound 5, 2-[(17-cyclopropylmethyl)-4,5α-epoxy-3,14-dihydroxy-morphinan-6β-yl]-2,3-dihydro-isoindole-1-one tartaric acid salt] | 0.015 mg/kg, sc |
| C=CCN1CC[C@]23c4c5ccc(O)c4O[C@H]2[C@H](N2C(=O)c4ccccc4C2=O)CC[C@@]3(O)[C@H]1C5 [Compound 2, N-[(17-allyl)-4,5α-epoxy-3,14-dihydroxy-morphinan-6β-yl]-phthalimide tartaric acid salt] | 0.32 mg/kg, sc |
| O=C1c2ccccc2C(=O)N1[C@@H]1CC[C@@]2(O)[C@H]3Cc4ccc(O)c5c4[C@@]2(CCN3CC2CC2)[C@H]1O5 [Compound 1, N-[(17-cyclopropylmethyl)-4,5α-epoxy-3,14-dihydroxy-morphinan-6β-yl]-phthalimide hydrochloric acid salt] | 0.0034 mg/kg, sc |
| CN(C(=O)c1ccccc1)[C@@H]1CC[C@@]2(O)[C@H]3Cc4ccc(O)c5c4[C@@]2(CCN3CC2CC2)[C@H]1O5 [Compound 7, 17-cyclopropylmethyl-4,5α-epoxy-3,14-dihydroxy-6β-(N-methylbenzamido)-morphinan hydrochloric acid salt, reference compound] | 0.55(Reference Example) mg/kg, sc |
